Laboratory results from ChEMBL document CHEMBL3580537, “Neristatin 1 provides critical insight into bryostatin 1 structure-function relationships” (J Nat Prod, 2015).
pIC50, pKi: −log10 of the molar value. Calls of active or inactive are those of the source. The calls are words filed in the database; no cut-off is given here.

Legend:
U-937 [1] = test: Induction of TNFalpha secretion in human U937 cells at 0.01 nM to 10000 nM by real time qPCR method; type: functional, cell-based
U-937 [2] = test: Growth inhibition of human U937 cells at 0.1 nM to 1000 nM after 72 hrs by particle counter based cell counting assay; type: functional
U-937 [3] = test: Induction of cell attachment of human U937 cells at 0.1 nM to 1000 nM after 60 hrs by particle counter based cell counting assay; type: functional
U-937 [4] = test: Growth inhibition of human U937 cells at 1000 nM in presence of 10 nM PMA after 72 hrs by particle counter based cell counting assay; type: functional
U-937 [5] = test: Growth inhibition of human U937 cells at 0.1 nM to 3000 nM after 72 hrs by particle counter based cell counting assay; type: functional
U-937 [6] = test: Induction of TNFalpha secretion in human U937 cells at 0.01 nM to 10000 nM by real time qPCR method relative to PMA; type: functional
U-937 [7] = test: Induction of cell attachment of human U937 cells at 0.1 nM to 3000 nM after 60 hrs by particle counter based cell counting assay; type: functional
Toledo [8] = test: Potency index, ratio of IC50 for Merle-43 to IC50 for test compound against human Toledo cells after 72 hrs by particle counter based cell counting assay; type: functional
U-937 [9] = test: Suppression of PMA-induced growth inhibition of human U937 cells at 1000 nM after 72 hrs by particle counter based cell counting assay; type: functional
U-937 [10] = test: Inhibition of PMA-induced cell attachment of human U937 cells at 1000 nM after 60 hrs by particle counter based cell counting assay; type: functional
[11] = target: Protein kinase C alpha type (Homo sapiens, UniProt P17252); test: Inhibition of [20-3H]phorbol 12,13-dibutyrate binding to human PKCalpha by scintillation counting based poly(ethylene) glycol precipitation assay
[12] = Growth inhibition of human Toledo cells after 72 hrs by particle counter based cell counting assay; type: functional
U-937 [13] = test: Inhibition of PMA-induced TNFalpha secretion in human U937 cells at 0.01 nM to 10000 nM by real time qPCR method; type: functional, cell-based
Toledo [14] = test: Potency index, ratio of IC50 for neristatin-1 to IC50 for test compound against human Toledo cells after 72 hrs by particle counter based cell counting assay; type: functional

Row | SMILES | Activity (U-937 [1]) | growth inhibition (GI) (U-937 [2]) | Activity (U-937 [3]) | growth inhibition (GI) (U-937 [4]) | growth inhibition (GI) (U-937 [5]) | Activity (U-937 [6]) [%] | Activity (U-937 [7]) | Ratio IC50 (Toledo [8]) | inhibition (U-937 [9]) | inhibition (U-937 [10]) | pKi [11] | pIC50 [12] | inhibition (U-937 [13]) | Ratio IC50 (Toledo [14])
1 | CCCCCCCCCCCCCC(=O)O[C@@H]1[C@@H](C)[C@@]2(O)[C@@H](C=C(CO)C[C@]3(O)C(=O)C(C)=C[C@@H]23)[C@@H]2C(C)(C)[C@]12OC(C)=O [PHORBOL MYRISTATE ACETATE] | Active | 50% | Active |  |  |  |  |  |  |  |  |  |  | 
2 | CCCCCCCC(=O)O[C@H]1/C(=C/C(=O)OC)C[C@H]2C[C@@H](O)[C@@H](C)OC(=O)C[C@H](O)C[C@@H]3C[C@H](OC(C)=O)C(C)(C)[C@](O)(CCOC(=O)/C=C/C(C)(C)[C@]1(O)O2)O3 |  |  |  | Active | Active | 60 | Active |  |  |  |  |  |  | 
3 | COC(=O)/C=C1/C[C@H]2C[C@]3(O)O[C@H](C[C@@H](O)CC(=O)O[C@H](C)[C@H](O)C[C@@H]4C[C@@H]5CC(=O)O[C@@]5(O4)C(=O)C(C)(C)/C=C/[C@@H](C1)O2)C[C@H](OC(=O)C(C)(C)C)C3(C)C | inactive | inactive | inactive |  |  |  |  | 2.5 | Active | Active | 7.67 | 8.80 | Active | 
4 | CCC/C=C/C=C/C(=O)O[C@H]1/C(=C/C(=O)OC)C[C@H]2C[C@H]([C@@H](C)O)OC(=O)C[C@H](O)C[C@@H]3C[C@H](OC(C)=O)C(C)(C)[C@](O)(C[C@@H]4C/C(=C/C(=O)OC)C[C@H](/C=C/C(C)(C)[C@]1(O)O2)O4)O3 [BRYOSTATIN 1] | inactive | inactive | inactive |  |  |  |  |  | Active | Active | 9.32 |  | Active | 17
